Test results from patent publication US12503439B2, “Heteroaryl compounds for the treatment of pain” (VERTEX PHARMACEUTICALS INCORPORATED, priority 2022, dated 2025).

These molecules were tested against truncated form of human NaV 1.8 with full channel activity (expressed in HEK cells) (Homo sapiens, UniProt Q9Y5Y9) (assay: E-VIPR assay detecting and measuring NaV inhibition properties (electrical stimulation, membrane potential FRET dyes)). Conditions: HEK cells expressing truncated human NaV 1.8, KIR2.1 BacMam; 11-point dose response; 30 min compound incubation; stimulation 10 Hz for 10 s; read-out: measured IC50 value in the E-VIPR Assay.
Sequence of truncated form of human NaV 1.8 with full channel activity (expressed in HEK cells) (Q9Y5Y9 126-1722 limits assumed): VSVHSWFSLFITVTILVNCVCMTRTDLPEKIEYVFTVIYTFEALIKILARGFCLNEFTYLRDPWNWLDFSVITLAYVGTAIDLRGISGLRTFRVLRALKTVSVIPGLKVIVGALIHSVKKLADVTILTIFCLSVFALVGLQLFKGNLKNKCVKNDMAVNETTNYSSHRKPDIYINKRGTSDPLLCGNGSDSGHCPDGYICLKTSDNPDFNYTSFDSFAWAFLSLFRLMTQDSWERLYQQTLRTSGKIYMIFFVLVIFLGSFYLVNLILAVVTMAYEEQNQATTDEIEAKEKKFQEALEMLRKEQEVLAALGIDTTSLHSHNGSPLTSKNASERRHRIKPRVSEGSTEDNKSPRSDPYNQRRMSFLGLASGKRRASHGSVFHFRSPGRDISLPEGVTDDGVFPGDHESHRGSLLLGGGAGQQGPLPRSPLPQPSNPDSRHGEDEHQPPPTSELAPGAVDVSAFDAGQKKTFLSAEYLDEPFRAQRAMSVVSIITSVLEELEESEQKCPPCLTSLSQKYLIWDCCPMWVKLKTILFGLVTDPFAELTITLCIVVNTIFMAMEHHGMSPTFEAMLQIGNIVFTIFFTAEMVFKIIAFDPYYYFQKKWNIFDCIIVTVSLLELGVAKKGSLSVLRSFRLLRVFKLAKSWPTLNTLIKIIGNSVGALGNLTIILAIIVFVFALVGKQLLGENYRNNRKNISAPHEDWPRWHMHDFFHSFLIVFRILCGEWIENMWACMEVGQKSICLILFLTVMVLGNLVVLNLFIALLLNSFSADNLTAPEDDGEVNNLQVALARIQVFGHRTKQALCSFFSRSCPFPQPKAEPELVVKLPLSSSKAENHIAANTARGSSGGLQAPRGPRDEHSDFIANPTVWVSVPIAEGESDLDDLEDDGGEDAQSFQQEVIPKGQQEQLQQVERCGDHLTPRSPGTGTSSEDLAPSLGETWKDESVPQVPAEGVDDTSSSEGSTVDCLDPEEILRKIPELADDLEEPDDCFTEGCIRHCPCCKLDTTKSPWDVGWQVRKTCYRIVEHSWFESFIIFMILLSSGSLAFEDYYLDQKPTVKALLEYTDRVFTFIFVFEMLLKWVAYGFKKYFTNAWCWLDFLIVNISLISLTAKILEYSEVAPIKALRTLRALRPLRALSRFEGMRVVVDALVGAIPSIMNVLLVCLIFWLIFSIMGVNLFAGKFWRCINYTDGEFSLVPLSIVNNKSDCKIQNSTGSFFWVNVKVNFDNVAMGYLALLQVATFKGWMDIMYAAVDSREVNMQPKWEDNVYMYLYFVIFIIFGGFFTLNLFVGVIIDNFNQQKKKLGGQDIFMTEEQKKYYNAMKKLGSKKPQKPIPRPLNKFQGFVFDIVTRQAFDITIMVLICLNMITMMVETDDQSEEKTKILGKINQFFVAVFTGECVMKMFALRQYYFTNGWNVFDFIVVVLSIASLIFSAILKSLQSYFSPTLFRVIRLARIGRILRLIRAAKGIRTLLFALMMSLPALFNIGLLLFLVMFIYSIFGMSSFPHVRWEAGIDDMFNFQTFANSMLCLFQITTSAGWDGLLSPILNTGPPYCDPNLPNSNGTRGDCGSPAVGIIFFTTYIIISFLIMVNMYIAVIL
Type: cell-based
Description: E-VIPR Assay Detecting and Measuring NaV Inhibition Properties
Sodium ion channels are voltage-dependent proteins that can be activated by inducing membrane voltage changes by applying electric fields. […] The instrument comprises a microtiter plate handler, an optical system for exciting the coumarin dye while simultaneously recording the coumarin and oxonol emissions, a waveform generator, a current- or voltage-controlled amplifier, and parallel electrode pairs that are inserted into assay plate wells. Under integrated computer control, this instrument passes user-programmed electrical stimulus protocols to cells within the wells of the microtiter plate.
16-20 hours prior to running the assay on E-VIPR, HEK cells expressing a truncated form of human NaV 1.8 with full channel activity were seeded into microtiter 384-well plates, pre-coated with matrigel, at a density of 25,000 cells per well. 2.5-5% KIR2.1 BacMam virus was added to the final cell suspension before seeding into cell plates. […] Cells were expanded in 5-layer CellSTACK culture chambers or cell culture flasks with vented caps, with 90-95% humidity and 5% CO2.
Reagents and Stock Solutions:
The concentration used can be dependent on viral titer of each batch.
Human Serum (HS, Millipore #S1P1-01KL, or Sigma SLBR5469V and SLBR5470V as a 50%/50% mixture, for 25% assay final concentration)
Hexyl Dye Solution (2× Concentration):
Bath 1 Buffer containing 0.5% β-cyclodextrin (made fresh prior to each use, Sigma #C4767), 8 μM CC2-DMPE and 2 μM DiSBAC6(3). The solution was made by adding 10% Pluronic F127 stock equal to combined volumes of CC2-DMPE and DiSBAC6(3). The order of preparation was first mix Pluronic and CC2-DMPE, then add DiSBAC6(3), then while vortexing add Bath 1/β-Cyclodextrin.
Assay Protocol (7 Key Steps):
The compound plate was backfilled with 45 μL per well of Compound Loading Buffer resulting in a 240-fold dilution of compound following a 1:1 transfer of compound into the cell plate (see Step 6). […] This assay dilution protocol was adjusted to enable a higher dose range to be tested in the presence of HS or if the final assay volume was altered. • 2) Hexyl Dye Solution was prepared. • 3) Cell plates were prepared. On the day of the assay, the media was aspirated, and the cells were washed three times with 80 μL of Bath-1 buffer, maintaining 25 μL residual volume in each well. • 4) 25 μL per well of Hexyl Dye Solution was dispensed into the cell plates. The cells were incubated for 20 minutes at room temperature or ambient conditions in darkness. • 5) 45 μL per well of Compound Loading Buffer was dispensed into compound plates. • 6) The cell plates were washed three times with 80 μL per well of Bath-1 Buffer, leaving […] of residual volume. Then 25 μL per well from compound plate was transferred to each cell plate. The mixture was incubated for 30 minutes at room temperature/ambient conditions. • 7) The cell plate containing compound was read on E-VIPR using the current-controlled amplifier to deliver stimulation wave pulses using a symmetrical biphasic waveform. […] A pre-stimulus recording was performed for each well for 0.5 seconds to obtain the un-stimulated intensities baseline. The stimulatory waveform was followed by 0.5 seconds of post-stimulation recording to examine the relaxation to the resting state. All E-VIPR responses were measured at 200 Hz acquisition rate. Data Analysis:
The response as a function of time was reported as the ratios obtained using the following formula: […]
The data were normalized by calculating the initial (Ri) and final (Rf) ratios. These were the average ratio values during part or all of the pre-stimulation period and during sample points during the stimulation period. The fluorescence ratio (Rf/Ri) was then calculated and reported as a function of time.
Control responses were obtained by performing assays in the presence of the positive control, and in the absence of pharmacological agents (DMSO vehicle negative control).

| SMILES | IC50 |
| --- | --- |
| COc1cc(F)ccc1Oc1cc(C(C)(C)C)cc(C)c1-c1[nH]c2ccccc2c(=O)c1Cl (single isomer, unassigned) [Compound 312, 2-[4-tert-butyl-2-(4-fluoro-2-methoxy-phenoxy)-6-methyl-phenyl]-3-chloro-1H-quinolin-4-one] | 500 to 2000 nM |
| COc1cc(F)ccc1Oc1cc(C(C)(C)C)cc(C)c1-c1[nH]c2ccccc2c(=O)c1Br (single isomer, unassigned) [Compound 320, 3-bromo-2-[4-tert-butyl-2-(4-fluoro-2-methoxy-phenoxy)-6-methyl-phenyl]-1H-quinolin-4-one] | 500 to 2000 nM |
| C=C(C)c1c(-c2c(C)cc(C(C)(C)C)cc2Oc2ccc(F)cc2OC)[nH]c2ccccc2c1=O (single isomer, unassigned) [Compound 331, 2-[4-tert-butyl-2-(4-fluoro-2-methoxy-phenoxy)-6-methyl-phenyl]-3-isopropenyl-1H-quinolin-4-one] | 500 to 2000 nM |
| COc1cc(F)ccc1Oc1cc(C(C)(C)C)cc(C)c1-c1[nH]c2ccccc2c(=O)c1C (single isomer, unassigned) [Compound 334, 2-[4-tert-butyl-2-(4-fluoro-2-methoxy-phenoxy)-6-methyl-phenyl]-3-methyl-1H-quinolin-4-one] | 2000 to 5000 nM |
| O=c1cc(-c2ccccc2C2CC2)[nH]c2ccccc12 [Compound 1, 2-(2-cyclopropylphenyl)-1H-quinolin-4-one] | ≥ 5000 nM |
| O=c1cc(-c2ccccc2OCC2CC2)[nH]c2ccccc12 [Compound 2, 2-[2-(cyclopropylmethoxy)phenyl]-1H-quinolin-4-one] | ≥ 5000 nM |
| O=c1cc(-c2ccccc2OCc2ccccc2)[nH]c2ccccc12 [Compound 3, 2-(2-benzyloxyphenyl)-1H-quinolin-4-one] | 500 to 2000 nM |
| O=c1cc(-c2ccccc2OCc2cccc(F)c2)[nH]c2ccccc12 [Compound 4, 2-[2-[(3-fluorophenyl)methoxy]phenyl]-1H-quinolin-4-one] | 500 to 2000 nM |
| O=c1cc(-c2ccccc2OCc2ccc(F)cc2)[nH]c2ccccc12 [Compound 6, 2-[2-[(4-fluorophenyl)methoxy]phenyl]-1H-quinolin-4-one] | 2000 to 5000 nM |
| COc1cc(F)ccc1Oc1cc(C(C)(C)C)cc(C)c1-c1nc(=O)c2ccccc2[nH]1 [Compound 28, 2-[4-tert-butyl-2-(4-fluoro-2-methoxy-phenoxy)-6-methyl-phenyl]-1H-quinazolin-4-one] | 500 to 2000 nM |
| COc1cc(F)ccc1Oc1cc(C(C)(C)C)cc(C)c1-c1cc(=O)c2cccc(C)c2[nH]1 [Compound 32, 2-[4-tert-butyl-2-(4-fluoro-2-methoxy-phenoxy)-6-methyl-phenyl]-8-methyl-1H-quinolin-4-one] | 500 to 2000 nM |
| COc1cc(F)ccc1Oc1cc(C(C)(C)C)cc(C)c1-c1cc(=O)n2ccccc2n1 [Compound 37, 2-[4-tert-butyl-2-(4-fluoro-2-methoxy-phenoxy)-6-methyl-phenyl]pyrido[1,2-a]pyrimidin-4-one] | ≥ 5000 nM |
| COc1cc(F)ccc1Oc1cc(C(C)(C)C)cc(C)c1-c1nc2cccc(F)c2c(=O)[nH]1 [Compound 38, 2-[4-tert-butyl-2-(4-fluoro-2-methoxy-phenoxy)-6-methyl-phenyl]-5-fluoro-3H-quinazolin-4-one] | 500 to 2000 nM |
| O=c1cc(-c2cc(Cl)c(C(F)(F)F)nc2N2CCCC(F)(F)CC2)[nH]c2c(F)cccc12 [Compound 95, 2-[5-chloro-2-(4,4-difluoroazepan-1-yl)-6-(trifluoromethyl)-3-pyridyl]-8-fluoro-1H-quinolin-4-one] | 500 to 2000 nM |
| COC1CCC(c2cc(C(C)(C)C)ncc2-c2cc(=O)c3c(C(N)=O)nccc3[nH]2)CC1 (stereo not drawn) [Compound 133, 2-[6-tert-butyl-4-(4-methoxycyclohexyl)-3-pyridyl]-4-oxo-1H-1,6-naphthyridine-5-carboxamide] | 500 to 2000 nM |
| CC(C)(C)n1cc(-c2cc(=O)c3c(C(N)=O)nccc3[nH]2)c(C2CCC(F)(F)CC2)n1 [Compound 138, 2-[1-tert-butyl-3-(4,4-difluorocyclohexyl)pyrazol-4-yl]-4-oxo-1H-1,6-naphthyridine-5-carboxamide] | 500 to 2000 nM |
| O=c1[nH]c(-c2nc(C(F)(F)F)ccc2N2CCCC(F)(F)CC2)nc2ccccc12 [Compound 153, 2-[3-(4,4-difluoroazepan-1-yl)-6-(trifluoromethyl)-2-pyridyl]-3H-quinazolin-4-one] | ≥ 5000 nM |
| Cc1c(Oc2ncc(C(F)(F)F)c(C)c2-c2cc(=O)c3c(NC(C)(C)CO)nccc3[nH]2)ccc(F)c1F [Compound 170, 2-[2-(3,4-difluoro-2-methyl-phenoxy)-4-methyl-5-(trifluoromethyl)-3-pyridyl]-5-[(2-hydroxy-1,1-dimethyl-ethyl)amino]-1H-1,6-naphthyridin-4-one] | 500 to 2000 nM |
| Cc1c(Oc2ncc(C(F)(F)F)c(C)c2-c2cc(=O)c3c(N4Cc5cn[nH]c5C4)nccc3[nH]2)ccc(F)c1F [Compound 175, 2-[2-(3,4-difluoro-2-methyl-phenoxy)-4-methyl-5-(trifluoromethyl)-3-pyridyl]-5-(4,6-dihydro-1H-pyrrolo[3,4-c]pyrazol-5-yl)-1H-1,6-naphthyridin-4-one] | 500 to 2000 nM |
| Cc1c(Oc2ncc(C(F)(F)F)c(C)c2-c2cc(=O)c3c(N4CC(O)C4)nccc3[nH]2)ccc(F)c1F [Compound 179, 2-[2-(3,4-difluoro-2-methyl-phenoxy)-4-methyl-5-(trifluoromethyl)-3-pyridyl]-5-(3-hydroxyazetidin-1-yl)-1H-1,6-naphthyridin-4-one] | 500 to 2000 nM |
| Cc1cc(-c2cc(=O)c3c(C)nccc3[nH]2)c(N2CCCC(F)(F)CC2)nc1C(F)(F)F [Compound 193, 2-[2-(4,4-difluoroazepan-1-yl)-5-methyl-6-(trifluoromethyl)-3-pyridyl]-5-methyl-1H-1,6-naphthyridin-4-one] | ≥ 5000 nM |
| NC(=O)c1nccc2[nH]c(-c3cc4ccccc4nc3N3CCC(F)(F)C3)cc(=O)c12 [Compound 281, 2-[2-(3,3-difluoropyrrolidin-1-yl)-3-quinolyl]-4-oxo-1H-1,6-naphthyridine-5-carboxamide] | 500 to 2000 nM |
| N#Cc1nccc2[nH]c(-c3cc4ccccc4nc3N3CCC(F)(F)C3)cc(=O)c12 [Compound 282, 2-[2-(3,3-difluoropyrrolidin-1-yl)-3-quinolyl]-4-oxo-1H-1,6-naphthyridine-5-carbonitrile] | 500 to 2000 nM |
| CCN(c1nc2ccccc2cc1-c1cc(=O)c2c(C(N)=O)nccc2[nH]1)C1CCC1 [Compound 303, 2-[2-[cyclobutyl(ethyl)amino]-3-quinolyl]-4-oxo-1H-1,6-naphthyridine-5-carboxamide] | ≥ 5000 nM |
| O=c1cc(-c2cc(C(F)(F)F)ncc2[C@H]2CC[C@H](C(F)(F)F)CC2)[nH]c2ccncc12 [Compound 305, 2-[2-(trifluoromethyl)-5-[4-(trifluoromethyl)cyclohexyl]-4-pyridyl]-1H-1,6-naphthyridin-4-one] | ≥ 5000 nM |
| Cc1c(C(F)(F)F)cnc(Oc2ccc(F)c(F)c2CO)c1-c1cc(=O)c2c(C(N)=O)nccc2[nH]1 [Compound 346, 2-[2-[3,4-difluoro-2-(hydroxymethyl)phenoxy]-4-methyl-5-(trifluoromethyl)-3-pyridyl]-4-oxo-1H-1,6-naphthyridine-5-carboxamide] | 500 to 2000 nM |
| NC(=O)c1nccc2[nH]c(-c3cc(F)c(C(F)(F)F)cc3Oc3ccc(F)c(F)c3O)cc(=O)c12 [Compound 347, 2-[2-(3,4-difluoro-2-hydroxy-phenoxy)-5-fluoro-4-(trifluoromethyl)phenyl]-4-oxo-1H-1,6-naphthyridine-5-carboxamide] | 500 to 2000 nM |
